Results on 11 molecules are retold here after PubChem BioAssay (NCI).

Among the test systems are BT-549 breast; DU-145 prostate; HS 578T breast; MDA-MB-231 breast; PC-3 prostate; T-47D breast.
Common to all, as to experiment: inhibition of tumour cell growth, NCI panel, 48 h

Where “and” joins values, the source holds several entries; their conditions need not be identical. Equal entries are not always repeated.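 Tested at 5 concentrations; 48 h exposure; 96-well plates; endpoints linearly interpolated, else capped at highest concentration. GI50: concentration for 50% inhibition of growth. TGI: concentration producing complete growth inhibition.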 A value given as a limit tells only on which side of the number the result lay.

Consider `CCCCCCCC(=O)SCC/C=C/[C@@H]1CC(=O)NCc2cccc(n2)C2=N[C@@](C)(CS2)C(=O)N[C@@H](C(C)C)C(=O)N1`, for which the GI50 with BT-549 breast was 5.04 µM; in the test with DU-145 prostate, 0.3 µM; with HS 578T breast, 0.378 µM; with MDA-MB-231 breast, 2.08 µM; in the test with PC-3 prostate, 0.657 µM; with T-47D breast, 0.412 µM. The TGI is above 33.3 µM in the test with BT-549 breast; above 33.3 µM in the test on DU-145 prostate; above 33.3 µM with HS 578T breast; above 33.3 µM with MDA-MB-231 breast; above 33.3 µM in the test on PC-3 prostate; 3 µM with T-47D breast.
In the case of `C=C(CNCCO)[C@@H]1CC[C@]2(CO)CC[C@]3(C)[C@H](CC[C@@H]4[C@@]5(C)CCC(N)C(C)(C)[C@@H]5CC[C@]43C)[C@@H]12` (some centres not stated), the GI50 in the test with BT-549 breast is 2.07 µM; with DU-145 prostate, 5.1 µM; in the test on HS 578T breast, 2.33 µM; with MDA-MB-231 breast it was 1.52 µM; in the test on PC-3 prostate, 2.36 µM; in the test on T-47D breast it was 2.07 µM. Also, the TGI with BT-549 breast amounted to 4.9 µM; with DU-145 prostate, 16.6 µM; in the test with HS 578T breast it was 6.92 µM; with MDA-MB-231 breast it was 3.14 µM; in the test with PC-3 prostate it was 11.2 µM; with T-47D breast it was 3.95 µM.
As for `COc1cc2nc(C)nc(N[C@H](C)c3cc(N)cc(C(F)(F)F)c3)c2cc1O[C@H]1CCOC1`, the GI50 with BT-549 breast was 11.5 µM; in the test with DU-145 prostate, 16.2 µM; in the test with HS 578T breast, 14.7 µM; with MDA-MB-231 breast it was 12.1 µM; with PC-3 prostate it was 10.4 µM; with T-47D breast, 16.3 µM. Moreover, the TGI came to 24.2 µM in the test on BT-549 breast; 30.5 µM in the test on DU-145 prostate; 38.9 µM in the test on HS 578T breast; 28.6 µM in the test with MDA-MB-231 breast; 23.4 µM in the test on PC-3 prostate; 41.4 µM with T-47D breast.
Regarding `O=C(NCCNc1nccc(-c2c(-c3cccc(O)c3)nc3sccn23)n1)c1ccccc1O`, the GI50 is 4.74 µM in the test on BT-549 breast; 5.23 µM with DU-145 prostate; 3.15 µM in the test on HS 578T breast; 2.87 µM with MDA-MB-231 breast; 4.36 µM in the test on PC-3 prostate; 3.65 µM in the test on T-47D breast. Further, the TGI in the test on BT-549 breast came to 34.9 µM; in the test with DU-145 prostate, 35.5 µM; with HS 578T breast it was 16 µM; in the test with MDA-MB-231 breast it was 32 µM; in the test with PC-3 prostate it was 55.1 µM; with T-47D breast, 20.5 µM.
As for `COc1ccc(-c2cc(-c3ccc(Nc4nc(Nc5ccccc5)nc(Nc5ccc(Cl)cc5)n4)cc3)nc(N)c2C#N)cc1`, the GI50 is 0.822 µM in the test with BT-549 breast; 2.41 µM with DU-145 prostate; 1.21 µM with HS 578T breast; 1.01 µM with MDA-MB-231 breast; 1.13 µM with PC-3 prostate; 0.733 µM in the test with T-47D breast. Further, the TGI in the test with BT-549 breast is 2.49 µM; with DU-145 prostate, above 50 µM; in the test with HS 578T breast it was 5.08 µM; with MDA-MB-231 breast, 2.46 µM; in the test with PC-3 prostate, 7.94 µM; with T-47D breast it was 1.65 µM.
Regarding `NC1CCC(Nc2nc(NCc3ccc(-c4ccco4)nc3)c3ncn(C4CCCC4)c3n2)CC1` (configuration not stated), the GI50 with BT-549 breast was 0.0264 µM; with DU-145 prostate, 0.0426 µM; in the test on HS 578T breast, 0.0205 µM; in the test on MDA-MB-231 breast, 0.0137 µM; in the test on PC-3 prostate, 0.0307 µM; with T-47D breast it was 0.0249 µM. For the same molecule, the TGI was 0.0746 µM in the test on BT-549 breast; 12.2 µM in the test on DU-145 prostate; 0.0955 µM and 0.347 µM in the test with HS 578T breast; 0.206 µM and 1.69 µM with PC-3 prostate.
On to `COC(=O)Nc1nc2ccc(S(=O)c3ccccc3)cc2[nH]1` (configuration not stated), for which the GI50 was 3.98 µM with BT-549 breast; 31 µM in the test with DU-145 prostate; 19.6 µM in the test on HS 578T breast; 7.45 µM with MDA-MB-231 breast; 6.75 µM with PC-3 prostate; 4.38 µM in the test with T-47D breast. Besides, the TGI in the test on BT-549 breast, in the test on DU-145 prostate, with HS 578T breast, in the test on MDA-MB-231 breast, with PC-3 prostate and in the test on T-47D breast was above 100 µM in each case.
As to `CCOc1ccccc1-n1c(CN2CCN(C(=O)COc3ccc(CNCCCCCCN4C5CCCC4CC(OC(=O)Nc4cc(C)ccc4OC)C5)cc3)CC2)nc2ccccc2c1=O` (configuration not stated), the GI50 in the test with BT-549 breast is 1.72 µM; in the test with DU-145 prostate, 1.8 µM; in the test on HS 578T breast it was 1.86 µM; with MDA-MB-231 breast it was 0.815 µM; in the test with PC-3 prostate, 1.59 µM; in the test with T-47D breast, 1.78 µM. In addition, the TGI came to 3.26 µM in the test on BT-549 breast; 3.49 µM in the test with DU-145 prostate; 3.94 µM with HS 578T breast; 2.13 µM with MDA-MB-231 breast; 3.61 µM in the test with PC-3 prostate; 3.88 µM in the test on T-47D breast.
In the case of `CSc1ccccc1C#C/C=C\C#Cc1ccccc1N1CCCC1=O`, the TGI is above 45.4 µM in the test with BT-549 breast; above 50 µM in the test on DU-145 prostate; above 50 µM in the test with HS 578T breast; above 50 µM in the test on MDA-MB-231 breast; above 50 µM in the test with PC-3 prostate; above 20.3 µM in the test with T-47D breast. Moreover, the GI50 with DU-145 prostate is above 22.5 µM; in the test with HS 578T breast it was above 9.95 µM; with PC-3 prostate, above 50 µM.
As for `O=C(Nc1ccc(I)cc1)c1cc([N+](=O)[O-])ccc1O`, the GI50 was 5.36 µM with BT-549 breast; 17 µM with DU-145 prostate; 3.13 µM with HS 578T breast; 10 µM in the test on MDA-MB-231 breast; 3.42 µM in the test on PC-3 prostate; 3.87 µM in the test with T-47D breast. The TGI in the test with BT-549 breast was 27.1 µM; in the test with DU-145 prostate it was above 100 µM; in the test with HS 578T breast it was 29.3 µM; in the test on MDA-MB-231 breast, 53.1 µM; with PC-3 prostate it was 23.4 µM; with T-47D breast, above 100 µM.
Regarding `CCOC(=O)Nc1nc2ccc(OCC)cc2s1`, the GI50 is above 100 µM with BT-549 breast; above 100 µM with DU-145 prostate; 56.7 µM in the test with HS 578T breast; above 100 µM in the test with MDA-MB-231 breast; above 100 µM in the test on PC-3 prostate; 28.8 µM in the test with T-47D breast. Further, the TGI with BT-549 breast, in the test with DU-145 prostate, with HS 578T breast, in the test on MDA-MB-231 breast, with PC-3 prostate and in the test with T-47D breast was above 100 µM each time.
